Experimental data as given in US11617369B2, “Antimicrobial gallium compounds and methods” (The Board of Supervisors of Louisiana State University and …, priority 2018, dated 2023).
“Also recorded” adds a separate entry of the source. Blank lines part the entries; values can stand above or below the compound they belong to.

How the values were obtained:
[1] = cited from earlier work
Lactobacillus casei = experiment: Antibacterial activity by optical density of cultures with serial dilution of the compounds; type: cell-based; conditions: pH 5.9, 18 hours
Description: (§1) The antibacterial activities of three complexes against six oral bacteria at pH 5.9 were tested by measuring the optical density (OD, at 600 nm) of the cultures in […] of different bacteria with the presence of serial dilution of the compounds (10^−2M-7.81×10^−5M) after culture at 5% CO2 under 37° C. for 18 hours. The midpoint concentration (IC 50) was determined at the concentration that corresponds to 50% of maximum OD. The minimum inhibition concentration (MIC) was determined at the concentration that corresponds to 10% or less of OD of the control (without any gallium compound).

Streptococcus mutans = experiment: as above; type: cell-based; conditions: pH 5.9, 18 hours
Description: as §1

Pseudomonas aeruginosa = experiment: as above; type: cell-based; conditions: pH 5.9, 18 hours
Description: as §1

Actinomyces naeslundii = experiment: as above; type: cell-based; conditions: pH 5.9, 18 hours
Description: as §1

[2] = tested on: Streptococcus pneuomoniae; experiment: as above; type: cell-based; conditions: pH 5.9, 18 hours
Description: as §1

Streptococcus sobrinus = experiment: as above; type: cell-based; conditions: pH 5.9, 18 hours
Description: as §1

[3] = Stability of aqueous gallium complex solutions with pH; type: physicochemical; conditions: solution of 2×10^−3 M
[4] = Gallium release from composite discs, spectrophotometric method; conditions: 15% chelate in the monomer; deionized water pH=7.0; 4 days (FIG. 13)
[5] = 37° C., 5% CO2, OD at 600 nm, read-out: Midpoint concentration (IC50)
[6] = 10% or less of OD of the control

Compound: [Ga+3].[Ga+3].[O-2].[O-2].[O-2] [Ga2O3, gallium oxide]
- solubility in water (words) [1]: insoluble in water

Compound: [Ga+3].[OH-].[OH-].[OH-] [Ga(OH)3]
- solubility in water (words) [1]: sparingly soluble; also recorded: low solubility in water
- Ksp=[Ga^3+][OH^−]^3 ([1]; in water): 3.28×10^−36

Compound: [F][Ga]([F])[F] [GaF3, gallium trifluoride]
- solubility in water [1]: 15.8 µM
- solubility in water (words) [1]: sparingly soluble

- IC50 (Lactobacillus casei; [5]): > 5000 µM
- Minimum Inhibition Concentration (MIC) (Lactobacillus casei; [6]): >10^−2M
- IC50 (Streptococcus mutans; [5]): 1250 µM
- Minimum Inhibition Concentration (MIC) (Streptococcus mutans; [6]): 2500 µM
- IC50 (Pseudomonas aeruginosa; [5]): > 1880 µM
- Minimum Inhibition Concentration (MIC) (Pseudomonas aeruginosa; [6]): 50 µM
- IC50 (Actinomyces naeslundii; [5]): 1880 µM
- Minimum Inhibition Concentration (MIC) (Actinomyces naeslundii; [6]): 2500 µM
- IC50 [2, 5]: 1880 µM
- Minimum Inhibition Concentration (MIC) [2, 6]: 5000 µM
- IC50 (Streptococcus sobrinus; [5]): 1250 µM
- Minimum Inhibition Concentration (MIC) (Streptococcus sobrinus; [6]): 5000 µM
- pH up to which the solution is stable [3]: ≤ 5.9
Compound: [F][Ga-2]([F])([F])([F])[F].[Na+].[Na+] [Na2GaF5]

Compound: C=C(C)C(=O)OCCOc1ccc(C(C)(CCC(=O)NCCCCC(C(=O)[O-])N(CC(=O)[O-])CC(=O)O)c2ccc(OCCOC(=O)C(=C)C)cc2)cc1.F.[F-].[Ga+3] (stereo not shown) [ternary gallium fluoride chelate, monogallium(III) mono(2,2′-((5-(4,4-bis(4-(2-(methacryloyloxy)ethoxy)phenyl)pentanamido)-1-carboxylatopentyl)azanediyl)diacetate) monofluoride hydrofluoride]
- amount of gallium ion released compared with those without the chelate [4]: nearly double
